Laboratory results from paper PMC3206302 (The Journal of General Physiology, 2011).

Target: T1, TRPV3 (Mus musculus, UniProt Q8K424)
T1 sequence (Q8K424 1-791): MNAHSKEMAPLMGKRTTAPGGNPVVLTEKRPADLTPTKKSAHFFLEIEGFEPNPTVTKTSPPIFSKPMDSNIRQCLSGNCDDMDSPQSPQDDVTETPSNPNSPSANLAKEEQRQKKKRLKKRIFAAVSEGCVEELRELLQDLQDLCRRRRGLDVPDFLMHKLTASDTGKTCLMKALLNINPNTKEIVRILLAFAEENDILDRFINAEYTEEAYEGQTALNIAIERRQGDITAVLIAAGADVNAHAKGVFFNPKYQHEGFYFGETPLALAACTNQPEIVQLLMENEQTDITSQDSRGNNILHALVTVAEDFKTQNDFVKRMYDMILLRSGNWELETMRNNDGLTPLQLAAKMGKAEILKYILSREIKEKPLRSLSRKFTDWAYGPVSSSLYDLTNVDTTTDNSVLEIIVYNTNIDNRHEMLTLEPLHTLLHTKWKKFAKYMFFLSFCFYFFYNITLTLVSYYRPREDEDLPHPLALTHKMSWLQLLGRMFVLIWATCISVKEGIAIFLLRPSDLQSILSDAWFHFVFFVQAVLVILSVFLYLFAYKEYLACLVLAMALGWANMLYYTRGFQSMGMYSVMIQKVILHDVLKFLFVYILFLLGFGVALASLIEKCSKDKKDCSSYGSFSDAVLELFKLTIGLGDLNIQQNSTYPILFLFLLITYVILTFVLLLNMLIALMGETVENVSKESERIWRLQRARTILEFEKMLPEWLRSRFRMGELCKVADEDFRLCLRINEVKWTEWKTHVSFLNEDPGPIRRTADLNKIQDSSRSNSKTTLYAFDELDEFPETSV
Assay: patch-clamp, reversible potentiation of 2-APB response in inside-out patches
Assay type: cell-based

CC(C)=C[C@H]1C[C@H](C)[C@]2(CC[C@]3(C)C[C@H]4[C@H](C(=O)C[C@@]4(C)O)/C(C=O)=C\C[C@H]32)O1 [ophiobolin A]
patch-clamp, reversible potentiation of 2-APB response in inside-out patches: some CaM inhibitors such as ophiobolin A and W-7 may directly interfere with the gating of TRPV3
